Measurements as given in patent US7098024B2, “Depsipeptide compound” (Astellas Pharma Inc., priority 1999, dated 2006).

Key:
Format in all cases: cell-based
HeLa S3 cells = assay: Measurement of cytotoxic activity for human cancer cells (1), Cell Counting Kit; details: 72 h, cultured 3 days, read-out: IC50 value, cytotoxic activity (growth inhibition) for HeLa S3 cells
Protocol: Measurement of cytotoxic activity for human cancer cells (1)
HeLa S3 cells adjusted to a density of 6×10^4 cells/ml were dispensed in 200 μl portions, and various concentrations of the compound A and compound B respectively in 4 μl portions, into a 96 well test plate, and cultured at 37° C. for 3 days in a CO2 incubator. After the culturing, the degree of cell growth was measured using Cell Counting Kit (mfd. by DOJINDO), and the growth inhibition ratio at each concentration was obtained to calculate the IC50 value.

[1] = test system: Human colon cancer WiDr cells; assay: Measurement of cytotoxic activity for human cancer cells (2), Sulforhodamine B, WiDr; details: 72 hours
Protocol: (§1) Measurement of cytotoxic activity for human cancer cells (2)
(§2) Human colon cancer WiDr cells adjusted to a density of 6×10^4 cells/ml, human non-small cell lung carcinoma A549 cells adjusted to a density of 4×10^4 cells/ml or human prostate cancer DU-145 cells adjusted to a density of 6×10^4 cells/ml were dispensed into a 96 well test plate and cultured at 37° C. in a CO2 incubator. After 24 hours, varied concentration of the compound A, compound B or compound C was dispensed in 100 μl portions, and the cells were cultured at 37° C. for additional 72 hours in a CO2 incubator. After the culturing, the number of cells was determined using Sulforhodamine B, and the IC50 value of each compound for cell growth was calculated.

[2] = test system: human non-small cell lung carcinoma A549 cells; assay: Measurement of cytotoxic activity for human cancer cells (2), Sulforhodamine B, A549; details: 72 hours; for IC50: Homo sapiens, read-out: IC50 value for cell growth, A549 cells
Protocol: as §1, §2

[3] = test system: human prostate cancer DU-145 cells; assay: Measurement of cytotoxic activity for human cancer cells (2), Sulforhodamine B, DU-145; details: 72 hours
Protocol: as §1, §2

[4] = test system: PAI-1 promoter gene expression in mink lung epithelial cells (MvlLu); assay: Measurement of TGF-β like activity, PAI-1 promoter luciferase reporter
Source text: Measurement of TGF-β like activity
In order to detect the TGF-β like activity, a screening system was constructed making use of the expression of a reporter gene. A fluorescent luciferase gene was transfected into downstream of the PAI-1 promoter gene of mink lung epithelial cells (MvlLu). in which expression of […] (PAI-1) is induced by TGF-β due to excess expression of TGF-β receptor (Journal of Biological Chemistxy, vol. 262, pp. 17467–17414, 1987), (Analytical Biochemistry, vol. 216, pp. 276–284, 1994).
Using the above cells, the luminous intensity obtained by adding each compound was used as the index of TGF-β like activity.

Row | Molecule | IC50 (HeLa S3 cells) [nM] | cell growth inhibition activity for WiDr cells [1] | cell growth inhibition activity for A549 cells [2] | IC50 [2] [nM] | cell growth inhibition activity for DU-145 cells [3] | luminous intensity induced by the expression of PAI-1 promoter gene [4]
1 | CC1NC(=O)CC2/C=C/CCSSCC(NC1=O)C(=O)NC(C(C)C)C(O)CC(=O)O2 (stereo not drawn) [Compound A] | 1600 | excellent cell growth inhibition activity | excellent cell growth inhibition activity | ≤ 5 | excellent cell growth inhibition activity | 
2 | CCC(C)C1NC(=O)C2CSSCC/C=C/C(CC(=O)NC(C)C(=O)N2)OC(=O)CC1O (stereo not drawn) [Compound B] | 1200 | excellent cell growth inhibition activity | excellent cell growth inhibition activity | ≤ 5 | excellent cell growth inhibition activity | 
3 | CC(C)CC1NC(=O)C2CSSCC/C=C/C(CC(=O)NC(C)C(=O)N2)OC(=O)CC1O (stereo not drawn) [Compound C] |  | excellent cell growth inhibition activity | excellent cell growth inhibition activity | ≤ 5 | excellent cell growth inhibition activity | 
4 | TGF-β |  |  |  |  |  | increased the luminous intensity
